From patent US20020018806A1, “Lipopeptide adjuvants” (priority 2000, published 2002) come the findings set out here.

In the assay the test system is peripheral blood mononuclear cells. Nature of the assay: T-cell promiscuity in unimmunized humans: PBMC proliferation with lipopeptide (3H-thymidine incorporation). In kind it is cell-based, human. The following applies: PBMC 3×10^5/well, 5-6 days with lipopeptide, responder = ≧2 S.I. (cpm with antigen/cpm media only).

As to Tetanus toxoid, the Responder/Total is 10/21.
